Among the test systems are SF-539 CNS; DU-145 prostate; NCI-H226 lung; HCT-15 colon; RXF 393 renal; SF-268 CNS; SW-620 colon; MDA-MB-231 breast; 786-0 renal; K-562 leukemia.
Holding throughout (experiment): NCI anticancer screen, dose series, 48 h

Each structure is given as a SMILES string.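 Growth conditions: 96-well plates. Treatment: test compound, 48 hours, 5 concentrations. Analysis: linear interpolation between bracketing concentrations; unreached endpoints set to highest concentration. GI50 is the concentration that inhibits growth by half. At the TGI there is no net growth.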

With `C/C(=N\N=C(\[Se])N(C)C)c1ccccn1`, the TGI is 9.03 µM in the test on SF-539 CNS; 18 µM in the test on DU-145 prostate; 5.27 µM in the test on NCI-H226 lung; 15.9 µM in the test with HCT-15 colon; 6.23 µM in the test with RXF 393 renal; 25.6 µM with SF-268 CNS. In addition, the TGI is 15.2 µM in the test on SW-620 colon, 30.7 µM in the test with MDA-MB-231 breast, 18.3 µM with 786-0 renal and 23.6 µM in the test on K-562 leukemia.
Regarding `CC(/C=C/c1ccccc1)=N\NC(N)=S`, the TGI in the test with SF-539 CNS was 94.5 µM; with DU-145 prostate it was greater than 100 µM; with NCI-H226 lung, greater than 100 µM; in the test with HCT-15 colon, greater than 100 µM; with SF-268 CNS, greater than 100 µM; in the test with SW-620 colon, greater than 100 µM. The TGI with MDA-MB-231 breast and in the test with 786-0 renal was greater than 100 µM each time.
For `C=CC/C(=C\COP(=O)(OCc1ccc([N+](=O)[O-])o1)N(C)CCCCCl)CC/C=C(\C)CCC=C(C)C` (stereo unspecified), the GI50 with SF-539 CNS was 22.5 µM; in the test on DU-145 prostate, 11.6 µM; in the test with HCT-15 colon it was 12.8 µM; with RXF 393 renal, 12.4 µM; in the test on SF-268 CNS, 12 µM; with SW-620 colon, 9.44 µM. Also, the GI50 in the test with MDA-MB-231 breast is 12.7 µM; in the test with 786-0 renal, 13.2 µM; with K-562 leukemia, 17.3 µM. The TGI with SF-539 CNS came out at 39.4 µM; with DU-145 prostate, 23.8 µM; with HCT-15 colon it was 30.4 µM; in the test with RXF 393 renal, 24.9 µM; in the test on SF-268 CNS, 29 µM; in the test with SW-620 colon, 21.3 µM. The TGI in the test with MDA-MB-231 breast was 34.1 µM; in the test with 786-0 renal, 25.9 µM; in the test with K-562 leukemia, greater than 100 µM.
On to `OCCNCCCOc1ccc2ncnc(Nc3ccc(Oc4cccc(C(F)(F)F)c4)c(Cl)c3)c2c1`, for which the GI50 with SF-539 CNS is 1.64 µM; in the test on DU-145 prostate, 1.33 µM; in the test on HCT-15 colon, 1.54 µM; with SW-620 colon it was 1.76 µM; in the test with MDA-MB-231 breast it was 1.72 µM; in the test on 786-0 renal it was 1.62 µM. For the same molecule, the GI50 in the test on K-562 leukemia was 1.79 µM. Also, the TGI with SF-539 CNS was determined as 3.07 µM; with DU-145 prostate it was 2.66 µM; in the test on HCT-15 colon, 3.01 µM; in the test on SW-620 colon it was 3.38 µM; with MDA-MB-231 breast, 3.2 µM; in the test on 786-0 renal, 3.03 µM. The same molecule showed a TGI in the test with K-562 leukemia of 4.48 µM.
With `NCCOc1ccccc1/C=C1\c2ccccc2-c2ccc([N+](=O)[O-])cc21`, the GI50 in the test on SF-539 CNS is 1.79 µM; in the test on DU-145 prostate it was 1.03 µM; in the test on NCI-H226 lung, 1.73 µM; in the test on HCT-15 colon it was 1.2 µM; with RXF 393 renal, 1.6 µM; in the test on SF-268 CNS, 1.58 µM. Further, the GI50 was 1.09 µM with SW-620 colon, 1.58 µM in the test with MDA-MB-231 breast and 1.7 µM with 786-0 renal. The TGI was 3.18 µM with SF-539 CNS; 2.21 µM with DU-145 prostate; 3.48 µM with NCI-H226 lung; 2.53 µM with HCT-15 colon; 3.1 µM in the test with RXF 393 renal; 3.15 µM in the test on SF-268 CNS. For the same molecule, the TGI in the test with SW-620 colon stood at 2.43 µM; in the test on MDA-MB-231 breast, 2.99 µM; with 786-0 renal, 3.23 µM.
Regarding `COc1c(-c2ccc(O)c(O)c2)oc2c(O)c(O)cc(O)c2c1=O`, the TGI is greater than 100 µM in the test with SF-539 CNS; greater than 100 µM in the test with DU-145 prostate; greater than 100 µM in the test with NCI-H226 lung; greater than 100 µM with HCT-15 colon; 43.9 µM in the test with SW-620 colon; greater than 100 µM in the test on MDA-MB-231 breast. The TGI in the test on 786-0 renal was greater than 100 µM; in the test with K-562 leukemia, 46.4 µM.
With `COC(=O)/C=C1/SC(N2N=C(c3cccs3)CC2c2ccc(F)cc2)=NC1=O` (stereo unspecified), the GI50 was 1.86 µM in the test on SF-539 CNS; 2.12 µM in the test on DU-145 prostate; 2.24 µM in the test on NCI-H226 lung; 1.95 µM in the test with HCT-15 colon; 1.73 µM with RXF 393 renal; 2.95 µM in the test on SF-268 CNS. Further, the GI50 was 2.16 µM in the test on SW-620 colon, 2.96 µM in the test on MDA-MB-231 breast and 3.12 µM in the test with 786-0 renal. Also, the TGI with SF-539 CNS worked out at 3.39 µM; with DU-145 prostate it was 4.75 µM; with NCI-H226 lung, 6.32 µM; in the test with HCT-15 colon it was 4.44 µM; with RXF 393 renal, 3.26 µM; in the test on SF-268 CNS it was 12.6 µM. Also, the results for the TGI with SW-620 colon, with MDA-MB-231 breast and with 786-0 renal were 5 µM, 8.16 µM and 8.61 µM, respectively.
As to `O=C1Nc2ccccc2/C1=C\c1nc(C2CCN(S(=O)(=O)c3ccc(F)cc3)CC2)n2ccccc12`, the GI50 was 1.39 µM in the test on SF-539 CNS; 4.35 µM with DU-145 prostate; 2.32 µM in the test with NCI-H226 lung; greater than 100 µM with HCT-15 colon; 1.9 µM in the test on SF-268 CNS; 85.7 µM in the test on SW-620 colon. The GI50 was 2.9 µM with MDA-MB-231 breast, 2.37 µM in the test on 786-0 renal and greater than 100 µM with K-562 leukemia. Besides, the TGI was 3.07 µM in the test on SF-539 CNS; greater than 100 µM in the test on DU-145 prostate; 21.1 µM with NCI-H226 lung; greater than 100 µM in the test on HCT-15 colon; 13.8 µM in the test with SF-268 CNS; greater than 100 µM with SW-620 colon. The TGI was 60.8 µM in the test with MDA-MB-231 breast, 6.71 µM in the test on 786-0 renal and greater than 100 µM in the test with K-562 leukemia.
`O=C(O)CCc1c2ccc(=O)c(O)c-2oc2c(O)c(O)ccc12`: the TGI with DU-145 prostate is greater than 100 µM; with HCT-15 colon it was greater than 100 µM; in the test on RXF 393 renal, greater than 100 µM; with SF-268 CNS, greater than 100 µM; with SW-620 colon it was 59.9 µM; in the test on MDA-MB-231 breast, 62.9 µM. Also, the TGI was greater than 100 µM in the test on 786-0 renal and 55.2 µM in the test with K-562 leukemia.
Take `Cc1ccn2c(CCc3nnc4cc(C)ccn34)nnc2c1`: the TGI with SF-539 CNS, in the test with DU-145 prostate, in the test with NCI-H226 lung, with HCT-15 colon, in the test with RXF 393 renal and with SF-268 CNS was greater than 100 µM each time. Also, the TGI in the test on SW-620 colon, with MDA-MB-231 breast and with 786-0 renal was greater than 100 µM in each case.
In the case of `CCCCc1n(Cc2ccc3ccccc3c2)cc[n+]1Cc1ccc2ccccc2c1`, the GI50 in the test on SF-539 CNS is 1.4 µM; with DU-145 prostate, 1.41 µM; in the test with RXF 393 renal, 1.19 µM; with SW-620 colon, 1.2 µM; in the test with MDA-MB-231 breast, 1.31 µM; with 786-0 renal, 1.52 µM. Besides, the TGI in the test with SF-539 CNS is 2.74 µM; in the test with DU-145 prostate it was 2.83 µM; with RXF 393 renal it was 2.49 µM; in the test on SW-620 colon it was 2.77 µM; with MDA-MB-231 breast, 2.77 µM; with 786-0 renal, 2.97 µM.

The values above are taken from PubChem BioAssay (NCI).
